For three molecules, Activity results are on record in ChEMBL document CHEMBL1147224, “Resveratrol and two monomethylated stilbenes from Israeli Rumex bucephalophorus and their antioxidant potential” (J Nat Prod, 2003).

This series is described as follows: ABTS radical scavenging activity assessed as trolox equivalent antioxidant capacity after 10 mins. The class given is physicochemical.

Regarding `COc1ccc(/C=C/c2cc(O)cc(O)c2)cc1` [RESVERATROL 4'-METHYL ETHER], the result was Active. The value for `Oc1ccc(/C=C/c2cc(O)cc(O)c2)cc1` [RESVERATROL] was 2.74; that for `COc1cc(O)cc(/C=C/c2ccc(O)cc2)c1` was “Active”.
